Measurements: PMC5218480 (PLoS ONE, 2017)

Tested on: MV-4-11 cells
Test: Gene expression microarray analysis (Affymetrix PrimeView) and GSEA
Format: cell-based, human
Set-up: RFU PODN (11730768_x_at) / Fold change /veh PODN (11730768_x_at) / RFU LINC00158 (11744669_a_at) / Fold change /veh LINC00158 (11744669_a_at) / RFU DUSP10 (11751237_a_at) / Fold change /veh DUSP10 (11751237_a_at) / RFU ID3 (11757404_x_at) / Fold change /veh ID3 (11757404_x_at) / RFU PLEKHG5 (11737974_s_at) / Fold change /veh PLEKHG5 (11737974_s_at) / RFU LRRC4B (11730491_at) / Fold change /veh LRRC4B (11730491_at) / RFU GIMAP4 (11747438_a_at) / Fold change /veh GIMAP4 (11747438_a_at) / RFU KRT8 (11758183_x_at) / Fold change /veh KRT8 (11758183_x_at) / RFU CNN1 (11734310_a_at) / Fold change /veh CNN1 (11734310_a_at) / RFU VPS37D (11726825_at) / Fold change /veh VPS37D (11726825_at) / RFU C10orf10 (11716522_x_at) / Fold change /veh C10orf10 (11716522_x_at) / RFU KIR2DL2 /// KIR2DL4 /// KIR2DL5A /// KIR2DL5B /// KIR2DS1 /// KIR2DS2 /// KIR2DS3 /// KIR2DS4 /// KIR3DL3 /// KIR3DL3 /// KIR3DS1 (11738374_at) / Fold change /veh KIR2DL2 /// KIR2DL4 /// KIR2DL5A /// KIR2DL5B /// KIR2DS1 /// KIR2DS2 /// KIR2DS3 /// KIR2DS4 /// KIR3DL3 /// KIR3DL3 /// KIR3DS1 (11738374_at) / RFU C1QL1 (11718748_at) / Fold change /veh C1QL1 (11718748_at) / RFU TMPRSS4 (11747572_a_at) / Fold change /veh TMPRSS4 (11747572_a_at) / RFU HAMP (11756126_x_at) / Fold change /veh HAMP (11756126_x_at) / RFU RNFT2 (11725882_a_at) / Fold change /veh RNFT2 (11725882_a_at) / RFU NR4A2 (11747474_a_at) / Fold change /veh NR4A2 (11747474_a_at) / RFU ABCC12 (11746883_a_at) / Fold change /veh ABCC12 (11746883_a_at) / RFU TMEM136 (11760407_x_at) / Fold change /veh TMEM136 (11760407_x_at) / RFU CLDN22 /// WWC2 (11732394_at) / Fold change /veh CLDN22 /// WWC2 (11732394_at) / RFU HLA-DPB1 (11760878_x_at) / Fold change /veh HLA-DPB1 (11760878_x_at) / RFU SPINT1 (11716480_a_at) / Fold change /veh SPINT1 (11716480_a_at) / RFU GAP43 (11754022_s_at) / Fold change /veh GAP43 (11754022_s_at) / RFU A4GNT (11735810_at) / Fold change /veh A4GNT (11735810_at) / RFU PRB3 (11715151_x_at) / Fold change /veh PRB3 (11715151_x_at) / RFU TUBB4B (11761932_at) / Fold change /veh TUBB4B (11761932_at) / RFU CAPN14 (11732068_a_at) / Fold change /veh CAPN14 (11732068_a_at) / RFU TMCC2 (11721928_a_at) / Fold change /veh TMCC2 (11721928_a_at) / RFU IRGQ (11745062_a_at) / Fold change /veh IRGQ (11745062_a_at) / RFU FAM174B (11720279_a_at) / Fold change /veh FAM174B (11720279_a_at) / RFU TMPRSS4 (11748680_a_at) / Fold change /veh TMPRSS4 (11748680_a_at) / RFU FAM212B (11763350_a_at) / Fold change /veh FAM212B (11763350_a_at) / RFU PLEKHG5 (11743358_a_at) / Fold change /veh PLEKHG5 (11743358_a_at) / RFU ZSCAN30 (11745921_a_at) / Fold change /veh ZSCAN30 (11745921_a_at) / RFU CMKLR1 (11741424_a_at) / Fold change /veh CMKLR1 (11741424_a_at) / RFU LOC101060620 /// MAPK8IP1 (11723275_at) / Fold change /veh LOC101060620 /// MAPK8IP1 (11723275_at) / RFU SPTSSB (11747773_x_at) / Fold change /veh SPTSSB (11747773_x_at) / RFU PRSS12 (11739890_at) / Fold change /veh PRSS12 (11739890_at) / RFU BIN1 (11741810_x_at) / Fold change /veh BIN1 (11741810_x_at) / RFU WNT11 (11732464_a_at) / Fold change /veh WNT11 (11732464_a_at) / RFU C10orf10 (11716521_a_at) / Fold change /veh C10orf10 (11716521_a_at) / RFU C5orf56 (11738089_at) / Fold change /veh C5orf56 (11738089_at) / RFU CYB561 (11721691_x_at) / Fold change /veh CYB561 (11721691_x_at) / RFU ANKRD19P (11752326_a_at) / Fold change /veh ANKRD19P (11752326_a_at) / RFU OR2T12 /// OR2T33 /// OR2T8 (11738714_s_at) / Fold change /veh OR2T12 /// OR2T33 /// OR2T8 (11738714_s_at) / RFU VCAN (11748164_a_at) / Fold change /veh VCAN (11748164_a_at) / RFU JSRP1 (11732532_at) / Fold change /veh JSRP1 (11732532_at) / RFU KRTAP10-11 (11738290_x_at) / Fold change /veh KRTAP10-11 (11738290_x_at) / RFU MYO3A (11730013_a_at) / Fold change /veh MYO3A (11730013_a_at) / RFU EBF3 (11725865_a_at) / Fold change /veh EBF3 (11725865_a_at) / RFU CAMK2N1 (11719241_x_at) / Fold change /veh CAMK2N1 (11719241_x_at) / RFU C5orf56 (11738088_a_at) / Fold change /veh C5orf56 (11738088_a_at) / RFU OLFML3 (11715873_a_at) / Fold change /veh OLFML3 (11715873_a_at) / RFU LOC100653217 /// NTM (11731650_a_at) / Fold change /veh LOC100653217 /// NTM (11731650_a_at) / RFU MAPK11 (11762145_a_at) / Fold change /veh MAPK11 (11762145_a_at) / RFU FIZ1 (11724087_x_at) / Fold change /veh FIZ1 (11724087_x_at) / RFU OASL (11726364_x_at) / Fold change /veh OASL (11726364_x_at) / RFU SOX15 (11748057_x_at) / Fold change /veh SOX15 (11748057_x_at) / RFU CD79A (11719716_a_at) / Fold change /veh CD79A (11719716_a_at) / RFU HIST1H1D (11736915_at) / Fold change /veh HIST1H1D (11736915_at) / RFU CASKIN2 (11723855_a_at) / Fold change /veh CASKIN2 (11723855_a_at) / RFU LOC730098 (11760151_x_at) / Fold change /veh LOC730098 (11760151_x_at) / RFU OR4N2 (11742367_at) / Fold change /veh OR4N2 (11742367_at) / RFU PRRT2 (11749266_a_at) / Fold change /veh PRRT2 (11749266_a_at) / RFU SNX32 (11753110_a_at) / Fold change /veh SNX32 (11753110_a_at) / RFU CDHR5 (11726645_a_at) / Fold change /veh CDHR5 (11726645_a_at) / RFU RCAN1 (11760418_a_at) / Fold change /veh RCAN1 (11760418_a_at) / RFU FAM167A (11723789_a_at) / Fold change /veh FAM167A (11723789_a_at) / RFU FAM26E (11764081_at) / Fold change /veh FAM26E (11764081_at) / RFU ISYNA1 (11749810_s_at) / Fold change /veh ISYNA1 (11749810_s_at) / RFU ACY1 (11761880_at) / Fold change /veh ACY1 (11761880_at) / RFU 11764098_at / Fold change /veh 11764098_at / RFU SAMD14 (11745864_x_at) / Fold change /veh SAMD14 (11745864_x_at) / RFU NPB (11741838_a_at) / Fold change /veh NPB (11741838_a_at) / RFU TMPRSS6 (11731388_a_at) / Fold change /veh TMPRSS6 (11731388_a_at) / RFU KRTAP10-2 (11738614_at) / Fold change /veh KRTAP10-2 (11738614_at) / RFU ARHGAP8 /// PRR5-ARHGAP8 (11727945_x_at) / Fold change /veh ARHGAP8 /// PRR5-ARHGAP8 (11727945_x_at) / RFU KRTAP5-7 /// NADSYN1 (11734609_at) / Fold change /veh KRTAP5-7 /// NADSYN1 (11734609_at) / RFU RASL12 (11751679_a_at) / Fold change /veh RASL12 (11751679_a_at) / RFU CDKN2B (11736163_a_at) / Fold change /veh CDKN2B (11736163_a_at) / RFU PRF1 (11729649_at) / Fold change /veh PRF1 (11729649_at) / RFU, ZNF638 /// ZNF638-IT1 / Fold change vs veh, ZNF638 /// ZNF638-IT1 / RFU, PANK3 / Fold change vs veh, PANK3 / RFU, SH3YL1 / Fold change vs veh, SH3YL1 / RFU, ZEB2 / Fold change vs veh, ZEB2 / RFU, NRIP1 / Fold change vs veh, NRIP1 / RFU, PTTG1IP / Fold change vs veh, PTTG1IP / RFU, CAPN2 / Fold change vs veh, CAPN2 / RFU, MED14 / Fold change vs veh, MED14 / RFU, SNORA58 / Fold change vs veh, SNORA58 / RFU, C1orf63 / Fold change vs veh, C1orf63 / RFU, LRRFIP1 / Fold change vs veh, LRRFIP1 / RFU, NDUFAF7 / Fold change vs veh, NDUFAF7 / RFU, SLC12A2 / Fold change vs veh, SLC12A2 / RFU, IBTK / Fold change vs veh, IBTK / RFU, ESF1 / Fold change vs veh, ESF1 / Fold change vs veh, TMEM50B / RFU, TAOK1 / Fold change vs veh, TAOK1 / RFU, ACBD3 / Fold change vs veh, ACBD3 / RFU, TMA16 / Fold change vs veh, TMA16 / RFU, RWDD3 / Fold change vs veh, RWDD3 / RFU, BCAT1 / Fold change vs veh, BCAT1 / RFU, EDEM3 / Fold change vs veh, EDEM3 / RFU, TMEM33 / Fold change vs veh, TMEM33 / RFU, WDR75 / Fold change vs veh, WDR75 / RFU, AHCTF1 / Fold change vs veh, AHCTF1 / RFU, TFRC / Fold change vs veh, TFRC / RFU, ZDHHC17 / Fold change vs veh, ZDHHC17 / RFU, NOM1 / Fold change vs veh, NOM1 / RFU, ARL8B / Fold change vs veh, ARL8B / RFU, ZBTB11 / Fold change vs veh, ZBTB11 / RFU, TAMM41 / Fold change vs veh, TAMM41 / RFU, KIAA1704 /// LOC100996395 / Fold change vs veh, KIAA1704 /// LOC100996395 / RFU, ING1 / Fold change vs veh, ING1 / RFU, TRMT61B / Fold change vs veh, TRMT61B / RFU, FUBP3 / Fold change vs veh, FUBP3 / RFU, TP53 / Fold change vs veh, TP53 / RFU, TNKS2 / Fold change vs veh, TNKS2 / RFU, ZFP14 / Fold change vs veh, ZFP14 / RFU, ACTR2 / Fold change vs veh, ACTR2 / RFU, PPP3R1 / Fold change vs veh, PPP3R1 / RFU, PIK3R1 / Fold change vs veh, PIK3R1 / RFU, HNRNPA1 / Fold change vs veh, HNRNPA1 / RFU, RNF170 / Fold change vs veh, RNF170 / RFU, ZNF28 / Fold change vs veh, ZNF28 / RFU, RNGTT / Fold change vs veh, RNGTT / RFU, OGT / Fold change vs veh, OGT / RFU, BRD1 / Fold change vs veh, BRD1 / RFU, MARS / Fold change vs veh, MARS / RFU, ZNF655 / Fold change vs veh, ZNF655 / RFU, FAHD1 / Fold change vs veh, FAHD1 / RFU, BDP1 / Fold change vs veh, BDP1 / RFU, LRRCC1 / Fold change vs veh, LRRCC1 / RFU, ARID1A / Fold change vs veh, ARID1A / RFU, ZNF146 / Fold change vs veh, ZNF146 / RFU, ZNF330 / Fold change vs veh, ZNF330 / RFU, GPN3 / Fold change vs veh, GPN3 / RFU, C9orf123 / Fold change vs veh, C9orf123 / RFU, N4BP2L2 / Fold change vs veh, N4BP2L2 / RFU, ARFIP1 / Fold change vs veh, ARFIP1 / RFU, FAM179B / Fold change vs veh, FAM179B / RFU, BCL10 / Fold change vs veh, BCL10 / RFU, UHRF1BP1L / Fold change vs veh, UHRF1BP1L / RFU, BET1 / Fold change vs veh, BET1 / RFU, CNOT2 / Fold change vs veh, CNOT2 / RFU, ZNF268 / Fold change vs veh, ZNF268 / Fold change vs veh, ZNF507 / RFU, DGCR2 / Fold change vs veh, DGCR2 / RFU, WDSUB1 / Fold change vs veh, WDSUB1 / Fold change vs veh, HSP90B1 /// MIR3652 / RFU, ADSS / Fold change vs veh, ADSS / RFU, GK / Fold change vs veh, GK / RFU, ZNF148 / Fold change vs veh, ZNF148 / RFU, TAF9 / Fold change vs veh, TAF9 / RFU, SLC1A5 / Fold change vs veh, SLC1A5 / RFU, SLMO2 / Fold change vs veh, SLMO2 / RFU, ABCC4 / Fold change vs veh, ABCC4 / RFU, LOC101060439 /// RAP1B / Fold change vs veh, LOC101060439 /// RAP1B / RFU, RFX7 / Fold change vs veh, RFX7 / RFU, GTPBP10 / Fold change vs veh, GTPBP10 / RFU, CNEP1R1 / Fold change vs veh, CNEP1R1 / RFU, BIVM-ERCC5 /// ERCC5 / Fold change vs veh, BIVM-ERCC5 /// ERCC5 / RFU, ILF3 / Fold change vs veh, ILF3 / RFU 11762660_at / Fold change /veh 11762660_at / RFU VCAN (11757783_s_at) / Fold change /veh VCAN (11757783_s_at) / RFU DDX43 (11728927_at) / Fold change /veh DDX43 (11728927_at) / RFU KRT8 (11758188_x_at) / Fold change /veh KRT8 (11758188_x_at) / RFU NKD1 (11759106_at) / Fold change /veh NKD1 (11759106_at) / RFU SRD5A1 (11742802_a_at) / Fold change /veh SRD5A1 (11742802_a_at) / RFU TPSAB1 /// TPSB2 (11721975_s_at) / Fold change /veh TPSAB1 /// TPSB2 (11721975_s_at) / RFU GSTM3 (11746129_a_at) / Fold change /veh GSTM3 (11746129_a_at) / RFU IL23R (11737362_x_at) / Fold change /veh IL23R (11737362_x_at) / RFU TMEM51 (11727254_a_at) / Fold change /veh TMEM51 (11727254_a_at) / RFU PIWIL2 (11732686_x_at) / Fold change /veh PIWIL2 (11732686_x_at) / RFU ORM1 (11744905_x_at) / Fold change /veh ORM1 (11744905_x_at) / RFU CCDC152 (11743942_at) / Fold change /veh CCDC152 (11743942_at) / RFU ECM1 (11717891_a_at) / Fold change /veh ECM1 (11717891_a_at) / RFU IL23R (11748794_a_at) / Fold change /veh IL23R (11748794_a_at) / RFU TNFAIP8L3 (11732012_x_at) / Fold change /veh TNFAIP8L3 (11732012_x_at) / RFU MBOAT4 (11741988_at) / Fold change /veh MBOAT4 (11741988_at) / RFU 11764193_at / Fold change /veh 11764193_at / RFU TMEM53 (11763286_at) / Fold change /veh TMEM53 (11763286_at) / RFU MAGEB2 (11727129_at) / Fold change /veh MAGEB2 (11727129_at) / RFU TMEM200A (11744735_a_at) / Fold change /veh TMEM200A (11744735_a_at) / RFU CCDC152 (11751479_a_at) / Fold change /veh CCDC152 (11751479_a_at) / RFU FAM211A (11726209_a_at) / Fold change /veh FAM211A (11726209_a_at) / RFU RGS16 (11746705_a_at) / Fold change /veh RGS16 (11746705_a_at) / RFU VCAN (11755009_s_at) / Fold change /veh VCAN (11755009_s_at) / RFU RHOB (11743442_s_at) / Fold change /veh RHOB (11743442_s_at) / RFU RGS16 (11720943_a_at) / Fold change /veh RGS16 (11720943_a_at) / RFU RGS16 (11720944_at) / Fold change /veh RGS16 (11720944_at) / RFU, VPS4B / Fold change vs veh, VPS4B / RFU, CREB1 / Fold change vs veh, CREB1 / RFU, DNAJC13 / Fold change vs veh, DNAJC13 / RFU, GNAQ / Fold change vs veh, GNAQ / RFU, CDK5R1 / Fold change vs veh, CDK5R1 / RFU, ZRANB3 / Fold change vs veh, ZRANB3 / RFU, CUL4A / Fold change vs veh, CUL4A / RFU, CCNY / Fold change vs veh, CCNY / RFU, UFL1 / Fold change vs veh, UFL1 / RFU, COG3 / Fold change vs veh, COG3 / RFU, DIAPH2 / Fold change vs veh, DIAPH2 / RFU, SKA2 / Fold change vs veh, SKA2 / RFU, AFF3 / Fold change vs veh, AFF3 / RFU, LMF1 / Fold change vs veh, LMF1 / RFU, IPO11 / Fold change vs veh, IPO11 / RFU, DFFB / Fold change vs veh, DFFB / RFU, FOXP1 / Fold change vs veh, FOXP1 / RFU, CARD8 / Fold change vs veh, CARD8 / RFU, STRN3 / Fold change vs veh, STRN3 / RFU, ADK / Fold change vs veh, ADK / RFU, RASSF2 / Fold change vs veh, RASSF2 / RFU, WIPF1 / Fold change vs veh, WIPF1 / RFU, LARP1B / Fold change vs veh, LARP1B / RFU, RASA1 / Fold change vs veh, RASA1 / RFU, RB1 / Fold change vs veh, RB1 / RFU, PPFIA1 / Fold change vs veh, PPFIA1 / RFU, MAT2A / Fold change vs veh, MAT2A / RFU, CCT5 / Fold change vs veh, CCT5 / RFU, WDR92 / Fold change vs veh, WDR92 / RFU, CUX1 / Fold change vs veh, CUX1 / RFU, TTC7A / Fold change vs veh, TTC7A / RFU, TMEM135 / Fold change vs veh, TMEM135 / RFU, DEPTOR / Fold change vs veh, DEPTOR / RFU, CPM / Fold change vs veh, CPM / RFU, DNAJB6 / Fold change vs veh, DNAJB6 / RFU, CACNA2D3 / Fold change vs veh, CACNA2D3 / RFU, DTX4 / Fold change vs veh, DTX4 / RFU, TFCP2 / Fold change vs veh, TFCP2 / RFU, GMCL1 /// GMCL1P1 / Fold change vs veh, GMCL1 /// GMCL1P1 / RFU, AEBP2 / Fold change vs veh, AEBP2 / RFU, SNHG1 /// SNORD22 /// SNORD25 /// SNORD26 /// SNORD27 /// SNORD28 /// SNORD29 /// SNORD31 / Fold change vs veh, SNHG1 /// SNORD22 /// SNORD25 /// SNORD26 /// SNORD27 /// SNORD28 /// SNORD29 /// SNORD31 / Fold change (Aza/veh), C12orf56 (ProbeSet 11735607_a_at) / Fold change (ACY-1035/veh), C12orf56 (ProbeSet 11735607_a_at) / Fold change (Aza/veh), FGFR1OP (ProbeSet 11751329_s_at) / Fold change (ACY-1035/veh), FGFR1OP (ProbeSet 11751329_s_at) / Fold change (Aza/veh), VPS36 (ProbeSet 11739960_a_at) / Fold change (ACY-1035/veh), VPS36 (ProbeSet 11739960_a_at) / RFU SYPL1 (11715823_x_at) / Fold change /veh SYPL1 (11715823_x_at) / RFU IGFBP7 (11715501_s_at) / Fold change /veh IGFBP7 (11715501_s_at) / RFU REEP3 (11722064_at) / Fold change /veh REEP3 (11722064_at) / RFU IGLL1 (11728026_x_at) / Fold change /veh IGLL1 (11728026_x_at): dose or concentration left out as unconfirmed
Conditions: ProbeSet 11740781_a_at; LIST B

Structure (SMILES): Nc1ncn([C@@H]2O[C@H](CO)[C@@H](O)[C@H]2O)c(=O)n1 [azacitidine]
- Fold change vs veh, ILF3: 0.96
